Assay results as given in article PMC2804909 (Journal of medicinal chemistry, 2010).
No end group written: not given here.

Columns and labels:
HiOASS-A = HiOASS-A (Haemophilus influenzae, UniProt P45040); assay: biochemical
[1] = biological target: T1, MNLNI (SAT C-terminal pentapeptide) (Haemophilus influenzae); assay: fluorescence titration
T1 chain: MNLNI

With MNENI [MNENI] the Kd (HiOASS-A) was roughly 7 mM.

B1: HiOASS-A (protein)
chain: MAIYADNSYSIGNTPLVRLKHFGHNGNVVVKIEGRNPSYSVKCRIGANMVWQAEKDGTLTKGKEIVDATSGNTGIALAYVAAARGYKITLTMPETMSLERKRLLCGLGVNLVLTEGAKGMKGAIAKAEEIVASDPSRYVMLKQFENPANPQIHRETTGPEIWKDTDGKVDVVVAGVGTGGSITGISRAIKLDFGKQITSVAVEPVESPVISQTLAGEEVKPGPHKIQGIGAGFIPKNLDLSIIDRVETVDSDTALATARRLMAEEGILAGISSGAAVAAADRLAKLPEFADKLIVVILPSASERYLSTALFEGIEG
B1 gave a Kd [1] of 0.044 mM.
